The text below walks through data of patent publication US6495699B2, “Metalloproteinase inhibitors, pharmaceutical compositions containing them, and their use” (Agouron Pharmaceuticals Inc., priority 1996, dated 2002).

Common to all, as to assay type: biochemical
The target of experiment [1] is T1, catalytic domain of human stromelysin (Hsln) (Homo sapiens, UniProt P08254).
T1 construct: The catalytic domain of human stromelysin (Hsln) was obtained by expression and purification of a C-terminally truncated prostromelysin-1; made in house; host or cells: E. coli BL21
Nature of the experiment: Fluorometric MCA-peptide hydrolysis assay, stromelysin (Hsln). The note with it: apparent Ki; 10 μM MCA peptide substrate, 37° C., pH 7.5; read-out: Hsln (Ki,app). How it is done:
The catalytic domain of human stromelysin (Hsln) was obtained by expression and purification of a C-terminally truncated prostromelysin-1 from E. coli host BL21 (see Marcy et al. Biochem., 1991, 30, 6476). The subsequent activation of the mature form (Hsln) was completed with 2 mM APMA for 1 hour at 37° C., followed by separation using a sizing column.
(§1) Assays were performed in assay buffer (50 mM Tricine pH 7.5, 200 mM sodium chloride, 10 mM calcium chloride, 0.5 mM zinc acetate containing 2% dimethyl sulfoxide (DMSO)) once the substrate and inhibitor were diluted into it. Stock solutions of inhibitors were prepared in 100% DMSO. Stock solutions of the substrate were prepared in 100% DMSO at a concentration of 6 mM.
(§2) The assay method was based on the hydrolysis of MCA-Pro-Leu-Gly-Leu-DPA-Ala-Arg-NH2 (American Peptide Co.) at 37° C. (see Knight, C. G. et al., FEBS, 1992, 296, 263-266). The fluorescence changes were monitored with a Perkin-Elmer LS-50B fluorimeter using an excitation wavelength of 328 nm and an emission wavelength of 393 nm. The substrate concentration used in the assays was 10 μM. The inhibitor was diluted into the assays from a solution in 100% DMSO, and controls substituted an equal volume of DMSO so that the final DMSO concentration from inhibitor and substrate dilution in all assays was 2%. […] Proper determination of steady-state rates of substrate cleavage required assay lengths of 60 minutes to allow for complete equilibration of the enzyme-inhibitor complex.
(§3) The Km for the MCA peptide substrate with the matrix metalloproteinases is quite high and exceeds its solubility under assay conditions. Consequently, the apparent Ki (Ki,app) was determined to describe the strength of inhibition. However, in this case, Ki,app would be essentially equal to Ki since [S]<<Km. For the determination of Ki,app, the concentration of the inhibitor was varied at a constant and low concentration of substrate and the steady-state rates of fluorescence change determined. In most cases absorptive quench due to the presence of ligand was not observed. For slow-binding inhibitors, onset of inhibition curves were collected for at least 45 minutes so that equilibrium was established. Steady-state rates of fluorescence change were obtained by fitting a curve to an equation for a single exponential decay containing a linear phase. The fitted value of the linear phase was taken as the steady-state rate. The steady-state rates were fitted to the Michaelis equation describing competitive inhibition by non-linear methods. Data resulting from tight-binding inhibition was analyzed, and Ki,app determined by fitting the data to the tight-binding equation of Morrison (Biochem. Biophys. Acta, vol. 185, pp. 269-286 (1969)) by non-linear methods.

In experiment [2] the target is T2, human progelatinase A (GelA), catalytic and fibronectin-like portion (Homo sapiens, UniProt P08253).
T2 construct: The catalytic and fibronectin-like portion of human progelatinase A (GelA) was expressed as a fusion protein with ubiquitin; ubiquitin; made in house; host or cells: E. coli
Nature of the experiment: Fluorometric MCA-peptide hydrolysis assay, gelatinase A (GelA). The note with it: apparent Ki, 10 μM MCA peptide substrate, 37° C., pH 7.5; for Ki: read-out: GelA (Ki,app). How it is done:
The catalytic and fibronectin-like portion of human progelatinase A (GelA) was expressed as a fusion protein with ubiquitin in E. Coli. Assays were carried out on autocatalytically activated material.
as §1, §2, §3

Experiment [3] concerns the target T3, human collagenase-3 (Coll3) (Homo sapiens, UniProt P45452).
T3 construct: the catalytic domain was liberated by treatment with 2 mM APMA at room temperature overnight; ubiquitin (N, cleaved yes); made in house; host or cells: E. coli
Nature of the experiment: Fluorometric MCA-peptide hydrolysis assay, collagenase-3 (Coll3). The following applies: apparent Ki; 10 μM MCA peptide substrate, 37° C., pH 7.5; read-out: Coll3 (Ki,app). How it is done:
The propeptide and catalytic domain of human collagenase-3 (Coll3) was expressed in E. coli as an N-terminal fusion protein with ubiquitin. After purification of the fusion from inclusion bodies, the catalytic domain was liberated by treatment with 2 mM APMA at room temperature overnight. Final purification was completed using copper chelate chromatography.
as §1, §2
as §3, with “In most cases absorptive quench due to the presence of ligand was not observed.” left out

The target of the next experiment is T4, Human matrilysin (Matr) (Homo sapiens, UniProt P09237).
T4 construct: the catalytic domain was liberated by treatment with 2 mM APMA at 37° C. for 2 hours; ubiquitin (cleaved yes); made in house; host or cells: E. coli
T4 sequence (P09237 95-267): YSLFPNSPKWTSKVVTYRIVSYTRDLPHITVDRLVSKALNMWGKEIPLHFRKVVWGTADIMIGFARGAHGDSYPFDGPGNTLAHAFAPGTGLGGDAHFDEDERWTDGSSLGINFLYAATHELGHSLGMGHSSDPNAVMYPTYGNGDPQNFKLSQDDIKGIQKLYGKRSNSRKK
Nature of the experiment: Fluorometric MCA-peptide hydrolysis assay, matrilysin (Matr). The note with it: apparent Ki; 10 μM MCA peptide substrate, 37° C., pH 7.5; read-out: Matr (Ki,app). The method, then: Human matrilysin (Matr) was expressed in E. coli as a fusion protein with ubiquitin. After purification of the matrilysin/ubiquitin fusion from inclusion bodies, the catalytic domain was liberated by treatment with 2 mM APMA at 37° C. for 2 hours. Final purification was complete using copper chelate chromatography.
as §1, §2, §3

T2 sequence (P08253 110-465 limits assumed): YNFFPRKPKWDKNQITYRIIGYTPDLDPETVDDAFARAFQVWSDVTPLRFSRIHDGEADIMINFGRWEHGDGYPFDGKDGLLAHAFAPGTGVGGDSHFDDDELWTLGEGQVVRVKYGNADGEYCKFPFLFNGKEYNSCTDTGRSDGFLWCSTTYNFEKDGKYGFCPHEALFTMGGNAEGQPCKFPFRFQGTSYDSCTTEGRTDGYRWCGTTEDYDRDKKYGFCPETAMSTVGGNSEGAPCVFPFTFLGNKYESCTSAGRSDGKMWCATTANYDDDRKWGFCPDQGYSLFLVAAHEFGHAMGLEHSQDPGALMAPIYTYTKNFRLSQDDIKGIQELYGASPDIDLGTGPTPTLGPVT
T1 sequence (P08254 100-272 limits assumed): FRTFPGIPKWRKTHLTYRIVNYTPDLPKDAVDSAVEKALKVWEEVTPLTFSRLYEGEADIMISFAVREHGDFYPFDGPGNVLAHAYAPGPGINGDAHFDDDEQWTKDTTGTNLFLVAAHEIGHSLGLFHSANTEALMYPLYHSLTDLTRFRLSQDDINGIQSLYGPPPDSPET

For “3(R)-[3-(4-Cyanophenyl)-1H-pyrrol-1-yl]-N-(2,2-dimethyl-1(S)-(hydroxymethyl)propyl)succinamic Acid Triethylammonium Salt [Example 5(h)]”, the Ki in experiment [1] is 650 nM; in experiment [2] it was 17.4 nM; in experiment [3], 43 nM.

As to “3(R)-[3-(4′-Cyanobiphenyl-4-yl)-1H-pyrrol-1-yl]-N-[2,2-dimethyl-1(S)-(hydroxymethyl)propyl]succinamic Acid Triethylammonium Salt [Example 5(g)]”, the values for the Ki in experiment [1], in experiment [2] and in experiment [3] were 57 nM, 2.2 nM and 14.5 nM, respectively.

In the case of `CCCC(C(=O)O)[C@H](C(=O)N[C@H](CO)Cc1ccccc1)n1ccc(-c2ccc(-c3ccc(C#N)cc3)cc2)c1` (mixture of isomers) [Example 10(b), 2(RS)-{1R-[1(S)-Benzyl-2-hydroxyethylcarbamoyl]-[3-(4′-cyano-biphenyl-4-yl)-1H-pyrrol-1-yl]-methyl}-pentanoic Acid], the Ki was found to be 16 nM in experiment [1], 510 nM on Human matrilysin (Matr) and 23.5 nM in experiment [3]. Also, in experiment [2], the GelA (Ki,app) came to 9.6 nM.

On to `CC(C)C[C@H](NC(=O)[C@@H](CC(=O)O)n1ccc(-c2ccc(-c3ccccc3)cc2)c1)C(C)O` (mixture of isomers) [Example 3], for which the Ki in experiment [1] is 150 nM; on Human matrilysin (Matr), 1250 nM; in experiment [3], 180 nM. Moreover, the GelA (Ki,app) in experiment [2] was 58 nM.

For the molecule `O=C(O)C(F)(F)F.O=C(O)C[C@H](C(=O)N[C@H](CO)Cc1c[nH]cn1)n1ccc(-c2ccc(-c3ccccc3)cc2)c1` [Example 1(g), 3(R)-[3-(Biphenyl-4-yl)-1H-pyrrol-1-yl]-N-[2-hydroxy-1(S)-[(1H-imidazol-4-yl)methyl]ethyl]succinamic Acid Trifluoroacetate Salt], the figures for the Ki in experiment [1] and in experiment [3] were 58 nM and 58.5 nM, respectively. In experiment [2], the GelA (Ki,app) is 8.5 nM.

Turning to `O=C(O)C[C@H](C(=O)N[C@@H]1CCCC[C@H]1O)n1ccc(-c2ccc(-c3ccccc3)cc2)c1` [Example 1(h), 3(R)-[3-(Biphenyl-4-yl)-1H-pyrrol-1-yl]-N-(2(R)-hydroxycyclohex-1(R)-yl)succinamic Acid], the Ki was 822 nM in experiment [1] and 3000 nM in experiment [3]. The GelA (Ki,app) in experiment [2] was found to be 58 nM.

Turning to `CON(C)C(=O)[C@H](CC(C)C)NC(=O)[C@@H](CC(=O)O)n1ccc(-c2ccc(-c3ccccc3)cc2)c1` [Example 1(l)], the Ki was 317 nM in experiment [1] and 227 nM in experiment [3]. In addition, the GelA (Ki,app) in experiment [2] stood at 54 nM.

Take `CNC(=O)[C@@H](NC(=O)[C@@H](CC(=O)O)n1ccc(C(=O)Cc2ccc(C#N)cc2)c1)C(C)(C)C` [Example 1(p), 3(R)-[3-[(4-Cyanophenyl)acetyl]-1H-pyrrol-1-yl]-N-(2,2-dimethyl-1(S)-(methylcarbamoyl)propyl]succinamic Acid]: the Ki in experiment [1] was 55000 nM. Besides, in experiment [2], the GelA (Ki,app) is 1230 nM.

In the case of `CNC(=O)[C@@H](CC(=O)O)n1ccc(-c2ccc(-c3ccncc3)cc2)c1` [Example 7(d), N-Methyl-3(R)-[3-[4-(pyridin-4-yl)phenyl]-1H-pyrrol-1-yl]succinamic Acid], the values for the Ki in experiment [1] and in experiment [3] were 1580 nM and 284 nM, respectively. Moreover, the GelA (Ki,app) in experiment [2] came to 121 nM.

In the case of `O=C(C[C@H](C(=O)N[C@H](CO)Cc1ccccc1)n1ccc(-c2ccc(-c3ccccc3)cc2)c1)NO` [Example 8(a)], the results for the Ki (in experiment [1]; on Human matrilysin (Matr)) were 0.69 nM and 36 nM, respectively. For the same molecule, in experiment [2], the GelA (Ki,app) came to 0.027 nM.

Take `CC(C)(C)[C@@H](CO)NC(=O)[C@@H](CC(=O)NO)n1ccc(-c2ccc(-c3ccncc3)cc2)c1` [Example 9, N^1-[2,2-Dimethyl-1(S)-(hydroxymethyl)propyl]-N^4-hydroxy-2(R)-[3-[4-(pyridin-4-yl)phenyl]-1H-pyrrol-1-yl]succinamide]: the values for the Ki in experiment [1] and in experiment [3] were 0.2 nM and 0.018 nM, respectively. In experiment [2], the GelA (Ki,app) worked out at 0.011 nM.

In the case of `CC(C)(C)[C@@H](CO)NC(=O)[C@@H]([C@H](CCCO)C(=O)O)n1ccc(-c2ccc(-c3ccccc3)cc2)c1` [Example 11, 2S-[1R-(3-(Biphenyl-4-yl)-1H-pyrrol-1-yl)-1-(1(S)-hydroxymethyl-2,2-dimethyl-propylcarbamoyl)-methyl]-5-hydroxypentanoic Acid], the Ki in experiment [1] was 62 nM; in experiment [3] it was above 750 nM. For the same molecule, in experiment [2], the GelA (Ki,app) worked out at 60 nM.

In the case of `C=CC[C@H](C(=O)O)[C@H](C(=O)N[C@H](CO)C(C)(C)C)n1ccc(-c2ccc(-c3ccccc3)cc2)c1` [Example 12, 2S, 2(1S)-[[3-(Biphenyl-4-yl)-1H-pyrrol-1R-yl]-[2,2-dimethyl-1(S)-(hydroxymethyl)propylcarbamoyl]methyl]pent-4-enoic Acid], in experiment [1], the Ki was above 500 nM. For the same molecule, the GelA (Ki,app) in experiment [2] is above 500 nM.

On to `CNC(=O)[C@@H](NC(=O)[C@@H](CC(=O)O)c1ccn(-c2ccc(-c3ccc(C#N)cc3)cc2)c1)C(C)(C)C` [Example 14(b), 3(S)-[1-(4′-Cyanobiphenyl-4-yl)-1H-pyrrol-3-yl]-N-[2,2-dimethyl-1(S)-(methylcarbamoyl)propyl]succinamic Acid], for which the Ki in experiment [1] came to 1.3 nM; in experiment [3], 0.028 nM. Further, in experiment [2], the GelA (Ki,app) amounted to 0.012 nM.

With `O=C(O)C[C@H](C(=O)N[C@H](CO)Cc1ccccc1)c1ccc(-c2ccc(-c3ccccc3)cc2)o1` [Example 15(a), N-(1(S)-Benzyl-2-hydroxyethyl)-3(S)-(2-(biphenyl-4-yl)furan-5-yl)succinamic Acid], the Ki in experiment [1] is 92 nM; in experiment [3], 300 nM. For the same molecule, the GelA (Ki,app) in experiment [2] was 72 nM.

With `CNC(=O)[C@@H](NC(=O)C(CC(=O)O)c1ccc(-c2ccc(-c3ccccc3)cc2)o1)C(C)(C)C` (stereo partly drawn) [Example 15(b), N-[2,2-Dimethyl-1(S)-(methylcarbamoyl)propyl]-3-(2-(biphenyl-4-yl)-furan-5-yl)succinamic Acid], the Ki in experiment [1] is 122 nM; in experiment [3], 1020 nM. Further, the GelA (Ki,app) in experiment [2] was 91 nM.
